In the supplement of paper PMC10307832:

Experiments:
Test in all cases: relative viability (nuclei count vs DMSO), 5 days (fraction); higher = more cells survive
[1] = compound: COc1cc2nc(N3CCCN(C)CC3)nc(NC3CCN(Cc4ccccc4)CC3)c2cc1OC + C[C@@H](Oc1cc(-c2cnn(C3CCNCC3)c2)cnc1N)c1c(Cl)ccc(F)c1Cl [Crizotinib] (partner 1 µM)
In short: (§1)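 Five library-drug doses in √10 steps were combined with a fixed anchor-drug dose, or a single drug was given alone, by pin tool to lung cancer cell lines in 1536-well plates the day after seeding. Nuclei were stained and counted after 5 days. Relative viability is the nuclei count in treated wells over that in vehicle wells, taken as the median of duplicate plates.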

[2] = compound: COc1cc2nc(N3CCCN(C)CC3)nc(NC3CCN(Cc4ccccc4)CC3)c2cc1OC + C[C@]1(O)C[C@@H](c2nc(-c3ccc4ccc(-c5ccccc5)nc4c3)c3c(N)nccn32)C1 [Linsitinib] (partner 1 µM)
In short: as §1

[3] = compound: COc1cc2nc(N3CCCN(C)CC3)nc(NC3CCN(Cc4ccccc4)CC3)c2cc1OC + CS(=O)(=O)N1CCN(Cc2cc3nc(-c4cccc5[nH]ncc45)nc(N4CCOCC4)c3s2)CC1 [Pictilisib] (partner 1 µM)
In short: as §1

[4] = compound: COc1cc2nc(N3CCCN(C)CC3)nc(NC3CCN(Cc4ccccc4)CC3)c2cc1OC + Cc1cc(Nc2cc(N3CCN(C)CC3)nc(Sc3ccc(NC(=O)C4CC4)cc3)n2)n[nH]1 [Tozasertib] (partner 0.1 µM)
In short: as §1

[5] = compound: COc1cc2nc(N3CCCN(C)CC3)nc(NC3CCN(Cc4ccccc4)CC3)c2cc1OC + COc1cccc2cc(-c3nc([C@H]4CC[C@H](C(=O)O)CC4)n4ncnc(N)c34)[nH]c12 [OSI-027] (partner 0.5 µM)
In short: as §1

Cell Line | relative viability ([1]; first compound 0.2 µM) | relative viability ([1]; first compound 0.6325 µM) | relative viability ([1]; first compound 2 µM) | relative viability ([1]; first compound 6.325 µM) | relative viability ([2]; first compound 0.2 µM) | relative viability ([2]; first compound 0.6325 µM) | relative viability ([2]; first compound 2 µM) | relative viability ([2]; first compound 6.325 µM) | relative viability ([3]; first compound 0.2 µM) | relative viability ([3]; first compound 0.6325 µM) | relative viability ([3]; first compound 2 µM) | relative viability ([3]; first compound 6.325 µM) | relative viability ([4]; first compound 0.2 µM) | relative viability ([4]; first compound 0.6325 µM) | relative viability ([4]; first compound 2 µM) | relative viability ([4]; first compound 6.325 µM) | relative viability ([5]; first compound 0.2 µM) | relative viability ([5]; first compound 0.6325 µM) | relative viability ([5]; first compound 2 µM) | relative viability ([5]; first compound 6.325 µM)
LCLC-103H | 1 | 0.973 | 1.14 | 1.06 | 1.1 | 1.13 | 1.28 | 1.04 | 0.635 | 0.666 | 0.656 | 0.585 | 0.396 | 0.494 | 0.462 | 0.453 | 0.454 | 0.564 | 0.537 | 0.449
LK-2 | 0.233 | 0.237 | 0.235 | 0.284 | 0.472 | 0.539 | 0.624 | 0.644 | 0.621 | 0.565 | 0.669 | 0.632 | 0.199 | 0.178 | 0.187 | 0.19 | 0.197 | 0.221 | 0.196 | 0.214
LOU-NH91 | 0.701 | 0.742 | 0.668 | 0.778 | 0.93 | 0.978 | 0.669 | 0.979 | 0.546 | 0.585 | 0.505 | 0.566 | 0.67 | 0.703 | 0.649 | 0.769 | 0.75 | 0.761 | 0.625 | 0.74
LU99A | 0.563 | 0.576 | 0.553 | 0.56 | 0.628 | 0.537 | 0.552 | 0.549 | 0.322 | 0.304 | 0.297 | 0.278 | 0.238 | 0.255 | 0.283 | 0.262 | 0.319 | 0.292 | 0.26 | 0.278
LXF-289 | 0.812 | 0.8 | 0.824 | 0.786 | 0.956 | 0.954 | 0.98 | 0.923 | 0.8 | 0.778 | 0.804 | 0.762 | 0.184 | 0.195 | 0.205 | 0.211 | 0.696 | 0.761 | 0.791 | 0.768
NCI-H23 | 0.417 | 0.556 | 0.59 | 0.546 | 0.562 | 0.733 | 0.833 | 0.53 | 0.438 | 0.491 | 0.574 | 0.362 | 0.423 | 0.385 | 0.481 | 0.337 | 0.637 | 0.578 | 0.707 | 0.503
NCI-H322M | 0.873 | 1.01 | 0.973 | 0.915 | 0.826 | 0.887 | 0.939 | 0.901 | 0.489 | 0.604 | 0.486 | 0.548 | 0.481 | 0.451 | 0.417 | 0.437 | 0.546 | 0.504 | 0.595 | 0.423
NCI-H358 | 0.495 | 0.642 | 0.903 | 0.639 | 0.837 | 0.66 | 0.741 | 0.52 | 0.368 | 0.422 | 0.348 | 0.269 | 0.108 | 0.111 | 0.123 | 0.126 | 0.734 | 0.831 | 0.845 | 0.626
NCI-H441 | 0.656 | – | 0.59 | 0.701 | 0.527 | – | 0.515 | 0.553 | 0.407 | – | 0.48 | 0.38 | 0.607 | 0.623 | 0.581 | 0.69 | 0.576 | 0.521 | 0.573 | 0.591
NCI-H460 | 0.833 | 0.878 | 0.893 | 0.313 | 0.73 | 0.792 | 0.762 | 0.267 | 0.306 | 0.513 | 0.359 | 0.332 | 0.535 | 0.399 | 0.361 | 0.625 | 0.669 | 0.674 | 0.565 | 0.63
NCI-H520 | 0.714 | 0.664 | 0.852 | 0.214 | 1.13 | 0.931 | 1.1 | 0.747 | 0.292 | 0.329 | 0.332 | 0.21 | 0.405 | 0.405 | 0.437 | 0.507 | 0.315 | 0.269 | 0.212 | 0.234
NCI-H596 | 0.998 | 1.09 | 0.988 | 0.933 | 1.12 | 1.02 | 1.17 | 0.992 | 0.396 | 0.432 | 0.392 | 0.359 | 0.961 | 1.1 | 0.91 | 0.893 | 0.771 | 0.786 | 0.866 | 0.667
NCI-H647 | 1.01 | 0.973 | 0.968 | 0.466 | 1.17 | 1.03 | 1.14 | 0.599 | – | 0.583 | 0.567 | 0.254 | 0.486 | 0.272 | 0.366 | 0.207 | 0.597 | 0.664 | 0.62 | 0.272
NCI-H650 | 0.734 | 0.589 | 0.841 | 0.733 | 0.866 | 0.77 | 0.943 | 0.534 | 0.959 | 0.707 | 1.03 | 0.562 | 0.773 | 0.714 | 0.793 | 0.709 | 0.532 | 0.483 | 0.508 | 0.329
NCI-H661 | 0.995 | 0.9 | 1.24 | 0.922 | 0.553 | 0.56 | 0.779 | 0.634 | 0.338 | 0.406 | 0.428 | 0.466 | 0.377 | 0.342 | 0.344 | 0.363 | 0.734 | 0.691 | 0.772 | 0.725
NCI-H727 | 0.757 | 0.752 | 1.13 | 0.592 | 0.316 | 0.277 | 0.369 | 0.221 | 0.391 | 0.394 | 0.32 | 0.346 | 0.655 | 0.689 | 0.828 | 0.584 | 0.511 | 0.68 | 0.535 | 0.565
